In patent US5750696A, “Dioxacycloalkane compound having renin-inhibitory activity” (Japan Tobacco Inc., priority 1992, dated 1998):

Experiments:
[1] = system: non-anesthetized marmosets; experiment: Hypotensive action on non-anesthetized marmosets under salt intake control; assay type: in vivo; settings: 10 mg/kg, po, low salt diet, tail-cuff method, relative to value before administration
From the text: (§1) In the following, the test results of the inhibitory action of the dioxacycloalkane compound of the above-mentioned formula [1] of the present invention, on the renin activity in human plasma and the hypotensive action on nonanesthetized marmosets under salt intake control are shown.
Hypotensive action on non-anesthetized marmosets under salt intake control
Non-anesthetized marmosets (weighing 310-370 g) raised on a low salt diet (containing 0.02% salt, 1/10 of the normal diet) for a week were orally administered with the compound (10 mg/kg) of Example 1 dissolved in 0.1 M citric acid, at the ratio of 2 ml/kg. The blood pressure was measured with the lapse of time before and after the administration by the tail-cuff method, and the hypotensive action was calculated in percentage relative to the value measured before the administration.

[2] = target: T1, renin activity in human plasma (Homo sapiens, UniProt P00797); experiment: Inhibitory action on renin activity in human plasma; assay type: biochemical; settings: 37° C., 1 hour, angiotensin I by radio immunoassay
T1 construct: Human plasma (200 μl); from tissue; host or cells: human plasma
T1 sequence (P00797 67-406): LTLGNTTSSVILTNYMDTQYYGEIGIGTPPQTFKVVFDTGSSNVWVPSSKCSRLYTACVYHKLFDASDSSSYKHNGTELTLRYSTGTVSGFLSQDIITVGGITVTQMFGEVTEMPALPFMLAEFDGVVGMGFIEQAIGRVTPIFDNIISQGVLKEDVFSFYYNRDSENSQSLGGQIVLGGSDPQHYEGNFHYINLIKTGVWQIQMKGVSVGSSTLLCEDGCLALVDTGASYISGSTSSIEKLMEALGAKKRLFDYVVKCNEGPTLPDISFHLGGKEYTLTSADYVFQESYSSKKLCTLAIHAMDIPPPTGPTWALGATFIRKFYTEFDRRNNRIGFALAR
Experimental: as §1
Inhibitory action on renin activity in human plasma
Human plasma (200 μl), a pH adjusting solution (20 μl), PMSF (10 μl), and a solution (10 μl) of the dioxacycloalkane compound of the present invention in dimethyl sulfoxide or dimethyl sulfoxide (10 μl ) as a control were placed in plastic tubes for RIA. Two sets of these were prepared and one set of them was incubated at 37° C. for 1 hour and the other was incubated at 4° C. for 1 hour.
After incubation, the amount of angiotensin I was quantitatively assayed by the radio immunoassay method. The renin activity in plasma was calculated by subtracting the amount of angiotensin I in the reaction mixture incubated at 4° C. from that in the reaction mixture incubated at 37° C. Percent inhibitory activity was calculated from the following formula [formula] The molar concentration necessary for 50% inhibition of activity (IC5 0) was determined from the inhibitory activity value obtained by the above calculating formula. [RENIN RIABEADS KIT (Dinabot Ltd.) was used for the measurement.]

| IC50 [2] | SMILES | further results |
| --- | --- | --- |
| 7 nM | CC1(C)OCO[C@H]1C[C@H](O)[C@H](CC1CCCCC1)NC(=O)[C@H](Cc1c[nH]cn1)NC(=O)[C@H](Cc1ccccc1)OC(=O)N1CCCCC1 [Example 3, (4S)-4-[(2S,3S)-4-cyclohexyl-2-hydroxy-3-[[Nα-[(2S)-3-phenyl-2-piperidinocarbonyloxypropionyl]-L-histidyl]amino]butyl]-5,5-dimethyl-1,3-dioxolane] | – |
| 1.8 nM | CC1(C)OCO[C@H]1C[C@H](O)[C@H](CC1CCCCC1)NC(=O)[C@H](Cc1c[nH]cn1)NC(=O)[C@H](Cc1ccccc1)NC(=O)N1CCCCC1 [Example 4, (4S)-4-[(2S,3S)-4-cyclohexyl-2-hydroxy-3-[[N α-(N-piperidino-carbonyl-L-phenylalanyl)-L-histidyl]amino]butyl]-5,5-dimethyl-1,3-dioxolane] | – |
| 14 nM | CSC[C@H](NC(=O)[C@H](Cc1ccccc1)OC(=O)N1CCN(C)CC1)C(=O)N[C@@H](CC1CCCCC1)[C@@H](O)C[C@@H]1OCOC1(C)C [Example 5, (4S)-4-[(2S,3S)-4-cyclohexyl-2-hydroxy-3-[[S-methyl-N-[(2S)-3-phenyl-2-(4-methylpiperazinyl)carbonyloxypropionyl]-L-cysteinyl]amino]butyl]-5,5-dimethyl-1,3-dioxolane] | – |
| 3 nM | CC1CCN(C(=O)N[C@@H](Cc2ccccc2)C(=O)N(C)[C@@H](Cc2c[nH]cn2)C(=O)N[C@@H](CC2CCCCC2)[C@@H](O)C[C@@H]2OCOC2(C)C)CC1 [Example 9, (4S)-4-[(2S,3S)-4-cyclohexyl-2-hydroxy-3-[[Nα-methyl-N α-[N-(4-methylpiperidino)carbonyl-L-phenylalanyl]-L-histidyl]-amino]butyl]-5,5-dimethyl-1,3-dioxolane] | – |

Further lines, the compound ahead of its results:

| SMILES | IC50 [2] | further results |
| --- | --- | --- |
| CN(C(=O)[C@H](Cc1ccccc1)NC(=O)N1CCCCC1)[C@@H](Cc1c[nH]cn1)C(=O)N[C@@H](CC1CCCCC1)[C@@H](O)C[C@@H]1OCOC1(C)C [Example 1, (4S)-4-[(2S,3S)-4-cyclohexyl-2-hydroxy-3-[[Nα-methyl-N α-(N-piperidinocarbonyl-L-phenylalanyl)-L-histidyl]amino]butyl]-5,5-dimethyl-1,3-dioxolane] | 0.9 nM | Hypotensive action (%) 0.5 hr later ([1]; 0.5 hr later): 10%; Hypotensive action (%) 1 hr later ([1]; 1 hr later): 12%; Hypotensive action (%) 3 hrs later ([1]; 3 hrs later): 10%; Hypotensive action (%) 5 hrs later ([1]; 5 hrs later): 10%; Hypotensive action (%) 7 hrs later ([1]; 7 hrs later): 3% |
| CN(C(=O)[C@H](Cc1ccccc1)NC(=O)N1CCCCC1)[C@@H](Cc1c[nH]cn1)C(=O)N[C@@H](CC1CCCCC1)[C@@H](O)C[C@H]1OCOC1(C)C [Example 2, (4R)-4-[(2S,3S)-4-cyclohexyl-2-hydroxy-3-[[Nα-methyl-N α-(N-piperidinocarbonyl-L-phenylalanyl)-L-histidyl]amino]butyl]-5,5-dimethyl-1,3-dioxolane] | 21 nM | – |
| CN(C(=O)[C@H](Cc1ccccc1)NS(=O)(=O)N1CCCCC1)[C@@H](Cc1c[nH]cn1)C(=O)N[C@@H](CC1CCCCC1)[C@@H](O)C[C@@H]1OCOC1(C)C [Example 6, (4S)-4-[(2S,3S)-4-cyclohexyl-2-hydroxy-3-[[Nα-methyl-N α-(N-piperidinosulfonyl-L-phenylalanyl)-L-histidyl]amino]butyl]-5,5-dimethyl-1,3-dioxolane] | 11 nM | – |
| CCN(CC)C(=O)N[C@@H](Cc1ccccc1)C(=O)N(C)[C@@H](Cc1c[nH]cn1)C(=O)N[C@@H](CC1CCCCC1)[C@@H](O)C[C@@H]1OCOC1(C)C [Example 10, (4S)-4-[(2S,3S)-4-cyclohexyl-2-hydroxy-3-[[Nα-methyl-N α-[N-(diethylamino)carbonyl-L-phenylalanyl]-L-histidyl]amino]butyl]-5,5-dimethyl-1,3-dioxolane] | 7.8 nM | – |
| CN(C(=O)[C@H](Cc1ccccc1)NC(=O)N1CCCCC1)[C@@H](Cc1c[nH]cn1)C(=O)N[C@@H](CC1CCCCC1)[C@@H](O)C[C@@H]1OC(C)(C)OC1(C)C [Example 11, (4S)-4-[(2S,3S)-4-cyclohexyl-2-hydroxy-3-[[Nα-methyl-N α-(N-piperidinocarbonyl-L-phenylalanyl)-L-histidyl]amino]butyl]-2,2,5,5-tetramethyl-1,3-dioxolane] | 13 nM | – |
| CN(C(=O)[C@H](Cc1ccccc1)NC(=O)N1CCCCC1)[C@@H](Cc1c[nH]cn1)C(=O)N[C@@H](CC1CCCCC1)[C@@H](O)C[C@@H]1OC(c2ccccc2)OC1(C)C (stereo partly drawn) [Example 12, (4S)-4-[(2S,3S)-4-cyclohexyl-2-hydroxy-3-[[Nα-methyl-N α-(N-piperidinocarbonyl-L-phenylalanyl)-L-histidyl]amino]butyl]-5,5-dimethyl-2-phenyl-1,3-dioxolane] | 4 nM | – |
